Assays:
GHSR1a [1] = target: T1, GHSR1a (Homo sapiens, UniProt Q92847); assay: Calcium FLIPR assay, GHSR-1a antagonism (reduction of ghrelin response); type: cell-based; conditions: HEK293/GHSR1a cells, ghrelin 10 nM
T1 construct: expressed in transfected cells; host or cells: HEK293
Summary of the method: (§1)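 Calcium dye-loaded HEK293/GHSR1a cells were monitored by FLIPR fluorescence for 2 min after additions at t=20 s. For antagonist mode, compound was co-added with ghrelin (10 nM) and scored by lowering the ghrelin signal. Agonist mode added compound alone; EC50 and IC50 came from dose-response data.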

[2] = Metabolic Stability (H = Human); type: in vitro ADME
[3] = Metabolic Stability (M = Mouse); type: in vitro ADME
GHSR1a [4] = target: T1, GHSR1a; assay: Calcium FLIPR assay, GHSR-1a agonism; type: cell-based; design: Emax: unit not given here; conditions: HEK293/GHSR1a cells
Summary of the method: as §1

T1 sequence (Q92847 whole entry): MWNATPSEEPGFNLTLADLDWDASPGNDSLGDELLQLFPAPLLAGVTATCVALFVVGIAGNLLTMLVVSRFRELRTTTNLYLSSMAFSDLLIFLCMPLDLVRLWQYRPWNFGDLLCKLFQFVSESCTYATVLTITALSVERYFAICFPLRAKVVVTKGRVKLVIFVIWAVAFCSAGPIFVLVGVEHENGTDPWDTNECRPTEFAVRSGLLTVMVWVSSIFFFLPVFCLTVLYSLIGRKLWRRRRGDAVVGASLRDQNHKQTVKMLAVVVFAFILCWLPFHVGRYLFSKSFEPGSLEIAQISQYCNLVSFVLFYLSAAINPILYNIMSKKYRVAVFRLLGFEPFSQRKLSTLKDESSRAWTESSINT

Row | IC50 (GHSR1a [1]) [nM] | Metabolic Stability H [2] | Metabolic Stability M [3] | EC50 (GHSR1a [4]) [nM] | Emax (GHSR1a [4]) | Compound
1 | 12 | High H High M | High H High M | 25 |  | CC(NC(=O)N(C)C1CCN(C)CC1)c1ccc(-c2c[nH]nn2)c(Cl)c1Cl (stereo not drawn) [Compound H0604, 3-(1-(2,3-dichloro-4-(1H-1,2,3-triazol-4-yl)phenyl)ethyl)-1-methyl-1-(1-methylpiperidin-4-yl)urea]
2 | 101 | Medium H Medium M | Medium H Medium M | > 30000 |  | CC(NC(=O)N(C)C1CCN(C)CC1)c1ccc(-c2cccc(C#N)c2)c(Cl)c1Cl (stereo not drawn) [Compound H0610, 3-(1-(2,3-dichloro-3′-cyano-[1,1′-biphenyl]-4-yl)ethyl)-1-methyl-1-(1-methylpiperidin-4-yl)urea]
3 | 107 | High | Medium | > 30000 |  | CC(NC(=O)N(C)C1CCN(C)CC1)c1ccc(-c2ccc(C(N)=O)cc2)c(Cl)c1Cl (stereo not drawn) [Compound H0615, 2′,3′-dichloro-4′-(1-(3-methyl-3-(1-methylpiperidin-4-yl)ureido)ethyl)-[1,1′-biphenyl]-4-carboxamide]
4 | 32 | Poor H Poor M | Poor H Poor M | > 30000 |  | CN1CCC(N(C)C(=O)NC(COCc2cccc(CO)c2)c2ccc(-c3cncnc3)c(Cl)c2Cl)CC1 (stereo not drawn) [Compound H0620, 3-(1-(2,3-dichloro-4-(pyrimidin-5-yl)phenyl)-2-((3-(hydroxymethyl)benzyl)oxy)ethyl)-1-methyl-1-(1-methylpiperidin-4-yl)urea]
5 | 71 | Medium | Poor | > 30000 |  | CC(NC(=O)N(C)C1CCN(C)CC1)c1ccc(-c2cnc3[nH]ncc3c2)c(Cl)c1Cl (stereo not drawn) [Compound H0623, 3-(1-(2,3-dichloro-4-(1H-pyrazolo[3,4-b]pyridin-5-yl)phenyl)ethyl)-1-methyl-1-(1-methylpiperidin-4-yl)urea]
6 | 4 | High H High M | High H High M | 1 | 5289 | CC(NC(=O)N(O)C1CCN(C)CC1)c1ccc(-c2cccs2)c(Cl)c1Cl (stereo not drawn) [Compound H0627, 3-(1-(2,3-dichloro-4-(thiophen-2-yl)phenyl)ethyl)-1-hydroxy-1-(1-methylpiperidin-4-yl)urea]
7 | 3 | High H High M | High H High M | 9 | 4714 | CC(NC(=O)N(C)C1CCN(C)CC1)c1ccc(CC#N)c(Cl)c1Cl (stereo not drawn) [Compound H0630, 3-(1-(2,3-dichloro-4-(cyanomethyl)phenyl)ethyl)-1-methyl-1-(1-methylpiperidin-4-yl)urea]
8 | 3 | High H High M | High H High M | 15 |  | CC(NC(=O)N(C)C1CCN(C)CC1)c1ccc(CO)c(Cl)c1Cl (stereo not drawn) [Compound H0633, 3-(1-(2,3-dichloro-4-(hydroxymethyl)phenyl)ethyl)-1-methyl-1-(1-methylpiperidin-4-yl)urea]
9 | 90 | High | Medium | > 30000 |  | CC(NC(=O)N(C)C1CCN(C)CC1)c1ccc(-c2cncc(CO)c2)c(Cl)c1Cl (stereo not drawn) [Compound H0636, 3-(1-(2,3-dichloro-4-(5-(hydroxymethyl)pyridin-3-yl)phenyl)ethyl)-1-methyl-1-(1-methylpiperidin-4-yl)urea]
10 | 85 | Medium H Medium M | Medium H Medium M | > 30000 |  | CC(NC(=O)N(C)C1CCN(C)CC1)c1ccc(-c2cncc(C(F)F)c2)c(Cl)c1Cl (stereo not drawn) [Compound H0637, 3-(1-(2,3-dichloro-4-(5-(difluoromethyl)pyridin-3-yl)phenyl)ethyl)-1-methyl-1-(1-methylpiperidin-4-yl)urea]
11 | 78 | Very low | Very Low | > 30000 |  | CC(NC(=O)N(C)C1CCN(C)CC1)c1ccc(-c2cncc(C=O)c2)c(Cl)c1Cl (stereo not drawn) [Compound H0642, 3-(1-(2,3-dichloro-4-(5-formylpyridin-3-yl)phenyl)ethyl)-1-methyl-1-(1-methylpiperidin-4-yl)urea]
12 | 6 | Medium H Medium M | Medium H Medium M | 28 | 2822 | CN1CCC(N(C)C(=O)NC(C#N)c2ccc(-c3ccsc3)c(Cl)c2Cl)CC1 (stereo not drawn) [Compound H0644, 3-(cyano(2,3-dichloro-4-(thiophen-3-yl)phenyl)methyl)-1-methyl-1-(1-methylpiperidin-4-yl)urea]
13 | 4 | Medium H Medium M | Medium H Medium M | 9 | 1815 | CC(NC(=O)N(C)C1CCN(C)CC1)c1ccc(-c2ccc(CO)s2)c(Cl)c1Cl (stereo not drawn) [Compound H0653, 3-(1-(2,3-dichloro-4-(5-(hydroxymethyl)thiophen-2-yl)phenyl)ethyl)-1-methyl-1-(1-methylpiperidin-4-yl)urea]
14 | 6 | High | Medium | 10 | 2200 | CC(NC(=O)N(C)C1CCN(C)CC1)c1ccc(-c2ccc(C(F)F)s2)c(Cl)c1Cl (stereo not drawn) [Compound H0654, 3-(1-(2,3-dichloro-4-(5-(difluoromethyl)thiophen-2-yl)phenyl)ethyl)-1-methyl-1-(1-methylpiperidin-4-yl)urea]
15 | 7 | Medium H Medium M | Medium H Medium M | 15 | 1350 | CC(O)c1ccc(-c2ccc(C(C)NC(=O)N(C)C3CCN(C)CC3)c(Cl)c2Cl)s1 (stereo not drawn) [Compound H0656, 3-(1-(2,3-dichloro-4-(5-(1-hydroxyethyl)thiophen-2-yl)phenyl)ethyl)-1-methyl-1-(1-methylpiperidin-4-yl)urea]
16 | 4 | High | Medium | 8 |  | Cc1ccc(-c2ccc(C(C)NC(=O)N(C)C3CCN(C)CC3)c(Cl)c2Cl)o1 (stereo not drawn) [Compound H0665, 3-(1-(2,3-dichloro-4-(5-methylfuran-2-yl)phenyl)ethyl)-1-methyl-1-(1-methylpiperidin-4-yl)urea]
17 | 20 | Low H Low M | Low H Low M | > 30000 |  | CC(=O)C#Cc1ccc(C(C)NC(=O)N(C)C2CCN(C)CC2)c(Cl)c1Cl (stereo not drawn) [Compound H0701, 3-(1-(2,3-dichloro-4-(3-oxobut-1-yn-1-yl)phenyl)ethyl)-1-methyl-1-(1-methylpiperidin-4-yl)urea]
18 | 53 | High H High M | High H High M | > 30000 |  | CC(NC(=O)N(C)C1CCN(C)CC1)c1ccc(-c2cncc(C3=CCCC3)c2)c(Cl)c1Cl (stereo not drawn) [Compound H0705, 3-(1-(2,3-dichloro-4-(5-(cyclopent-1-en-1-yl)pyridin-3-yl)phenyl)ethyl)-1-methyl-1-(1-methylpiperidin-4-yl)urea]
19 | 15 | Low | Medium | > 30000 |  | CC(NC(=O)N(C)C1CCN(C)CC1)c1ccc(-c2cncc(-c3cncs3)c2)c(Cl)c1Cl (stereo not drawn) [Compound H0716, 3-(1-(2,3-dichloro-4-(5-(thiazol-5-yl)pyridin-3-yl)phenyl)ethyl)-1-methyl-1-(1-methylpiperidin-4-yl)urea]
20 | 8 | Medium | High | > 30000 |  | CN1CCC(N(C)C(=O)NC(CC2CC2)c2ccc(-c3cccnc3)c(Cl)c2Cl)CC1 (stereo not drawn) [Compound H0720, 3-(2-cyclopropyl-1-(2,3-dichloro-4-(pyridin-3-yl)phenyl)ethyl)-1-methyl-1-(1-methylpiperidin-4-yl)urea]
21 | 20 | Medium | High | > 30000 |  | CN1CCC(N(C)C(=O)NC(CC2CC2)c2ccc(-c3cncc(N)c3)c(Cl)c2Cl)CC1 (stereo not drawn) [Compound H0721, 3-(1-(4-(5-aminopyridin-3-yl)-2,3-dichlorophenyl)-2-cyclopropylethyl)-1-methyl-1-(1-methylpiperidin-4-yl)urea]
22 | 5 | Medium H Medium M | Medium H Medium M | > 30000 |  | CN1CCC(N(C)C(=O)NC(CC2CC2)c2ccc(-c3ccc(C(N)=O)s3)c(Cl)c2Cl)CC1 (stereo not drawn) [Compound H0728, 5-(2,3-dichloro-4-(2-cyclopropyl-1-(3-methyl-3-(1-methylpiperidin-4-yl)ureido)ethyl)phenyl)thiophene-2-carboxamide]
23 | 10 | Medium | Low | > 30000 |  | CCC(NC(=O)N(C)C1CCN(C)C1)c1ccc(-c2cnccn2)c(Cl)c1Cl (stereo not drawn) [Compound H0857, 3-(1-(2,3-dichloro-4-(pyrazin-2-yl)phenyl)propyl)-1-methyl-1-(1-methylpyrrolidin-3-yl)urea]
24 | 8 | Medium H Medium M | Medium H Medium M | > 30000 |  | CCC(NC(=O)N(C)[C@@H]1CCN(C)CC1(C)C)c1ccc(-c2cnccn2)c(Cl)c1Cl (stereo partly drawn) [Compound H0858, 3-(1-(2,3-dichloro-4-(pyrazin-2-yl)phenyl)propyl)-1-methyl-1-((R)-1,3,3-trimethylpiperidin-4-yl)urea]

— US9546157B2, “Asymmetric piperidinyl-substituted ureas as medicines” (Helsinn Healthcare SA, priority 2014, dated 2017)
